Laboratory results taken from paper PMC6272715, “Discovery of Novel Small Molecule Anti-HCV Agents via the CypA Inhibitory Mechanism Using O-Acylation-Directed Lead Optimization” (Molecules, 2015).

Biological target: T1, hERG channels (Homo sapiens, UniProt Q12809)
T1 construct: expressed in transfected cells; host or cells: CHO cells, stably transfected
Assay: hERG cardiac toxicity assay (automated QPatch, CHO cells expressing hERG)
Type: cell-based
Conditions: QPatch whole-cell recording
Protocol: After intravenous administration, blood samples (0.2 mL) were collected at designated time points (0, 5, 15, 30, 45 min, 1, 2, 3, 5, 8, 12 and 24 h) from the eye venous sinus of the rats. The blood samples were centrifuged at 14800 rpm for 10 min to obtain the plasma fraction. The plasma samples were kept frozen (−20 °C) until analysis by a liquid chromatography-tandem mass spectrometry (LC-MS/MS).
Table S3. Pharmacokinetic parameters after intravenous administration of 25 to SD rats at […]
Pharmacokinetic Parameters 25 (Intravenous Injection of 2 mg 25/kg) Rat 1 Rat 2 a Rat 3 Mean ± SD […]
1 (intravenous injection of 2mg 25/kg) Rat 1 Rat 2 a Rat 3 Mean ± SD […]
a Rat 2: parts of the sample of 25 was injected into the subcutaneous tissues which lead to the uncertainty of the plasma concentration, so this rat was not incorporated into the calculation of pharmacokinetic parameters; b Cmax: maximum plasma concentration taken directly from measured values; c Tmax: time to reach Cmax; d AUC0-∞: integrated area under plasma concentration vs. time curve from time 0 to time infinity; e MRT: mean residence time; f t1/2: half-life. g N: parts of the data below the LLOQ, that result in the uncertainty of the pharmacokinetic parameters. hERG Cardiac Toxicity Assay of Compound 25 […]
After achieving break-in (whole-cell) configuration, the cells were recorded for 120 s to assess current stability. […]

T1 sequence (Q12809 whole entry): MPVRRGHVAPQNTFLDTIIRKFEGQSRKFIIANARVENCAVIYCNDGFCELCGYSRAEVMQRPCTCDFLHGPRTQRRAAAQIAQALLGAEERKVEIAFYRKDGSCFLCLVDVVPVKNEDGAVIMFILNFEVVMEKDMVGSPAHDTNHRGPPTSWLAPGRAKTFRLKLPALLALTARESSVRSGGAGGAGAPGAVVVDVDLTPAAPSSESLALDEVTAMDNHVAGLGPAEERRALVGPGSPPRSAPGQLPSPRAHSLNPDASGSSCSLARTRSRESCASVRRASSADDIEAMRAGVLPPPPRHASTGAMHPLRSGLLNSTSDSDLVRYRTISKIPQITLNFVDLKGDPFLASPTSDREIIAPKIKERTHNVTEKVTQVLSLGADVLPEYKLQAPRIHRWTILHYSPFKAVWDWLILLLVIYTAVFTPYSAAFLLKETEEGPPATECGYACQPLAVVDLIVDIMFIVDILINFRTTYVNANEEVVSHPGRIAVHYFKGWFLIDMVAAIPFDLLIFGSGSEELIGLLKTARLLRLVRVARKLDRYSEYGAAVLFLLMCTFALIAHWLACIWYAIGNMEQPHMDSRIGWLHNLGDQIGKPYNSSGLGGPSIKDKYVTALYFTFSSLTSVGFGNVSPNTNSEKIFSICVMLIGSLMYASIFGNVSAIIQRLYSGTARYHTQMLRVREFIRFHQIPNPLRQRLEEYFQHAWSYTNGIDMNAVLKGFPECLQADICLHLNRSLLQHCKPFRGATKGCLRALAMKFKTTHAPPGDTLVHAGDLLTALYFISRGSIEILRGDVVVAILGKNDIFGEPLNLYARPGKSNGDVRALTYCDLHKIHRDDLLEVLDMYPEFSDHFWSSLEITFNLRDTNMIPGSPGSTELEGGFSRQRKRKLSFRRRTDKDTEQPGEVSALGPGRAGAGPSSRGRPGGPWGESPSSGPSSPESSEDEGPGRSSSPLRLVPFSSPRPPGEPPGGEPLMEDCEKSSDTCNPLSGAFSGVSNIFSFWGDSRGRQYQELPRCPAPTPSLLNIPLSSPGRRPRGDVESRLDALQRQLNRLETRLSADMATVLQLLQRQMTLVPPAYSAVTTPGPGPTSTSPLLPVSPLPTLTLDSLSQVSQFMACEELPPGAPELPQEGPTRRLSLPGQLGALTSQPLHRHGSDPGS

`CCCCCCCC(=O)Oc1cccc(O)c1C(=O)NC(=O)NC1c2ccccc2-c2ccccc21` [Compound 25, 1-(2-Hydroxy-6-n-Octanoyloxybenzoyl)-3-(9H-fluoren-9-yl)-urea] was tested, and the IC50 was > 15 µM.
